The results in this text go back to ChEMBL document CHEMBL5653615 (J Biol Chem, 2013).

For assay [1], the target named is Phosphorylase b kinase gamma catalytic chain, skeletal muscle/heart isoform (Homo sapiens) (UniProt Q16816). Put plainly: Inhibition of human PHKg1 at 18.6 nM by HotSpot assay relative to control.
Assay [2] concerns the target Hepatocyte growth factor receptor (Homo sapiens) (UniProt P08581). Kind of assay: Inhibition of human c-MET at 18.6 nM by HotSpot assay relative to control.
The target in assay [3] is Serine/threonine-protein kinase PLK2 (Homo sapiens) (UniProt Q9NYY3). Put plainly: Inhibition of human PLK2 at 18.6 nM by HotSpot assay relative to control.
The target in assay [4] is Calcium/calmodulin-dependent protein kinase type 1D (Homo sapiens) (UniProt Q8IU85). Put plainly: Inhibition of human CAMK1d at 18.6 nM by HotSpot assay relative to control.
In assay [5] the target is T1, Serine/threonine-protein kinase TAO1 (Homo sapiens) (UniProt Q7L7X3).
T1 sequence (whole entry): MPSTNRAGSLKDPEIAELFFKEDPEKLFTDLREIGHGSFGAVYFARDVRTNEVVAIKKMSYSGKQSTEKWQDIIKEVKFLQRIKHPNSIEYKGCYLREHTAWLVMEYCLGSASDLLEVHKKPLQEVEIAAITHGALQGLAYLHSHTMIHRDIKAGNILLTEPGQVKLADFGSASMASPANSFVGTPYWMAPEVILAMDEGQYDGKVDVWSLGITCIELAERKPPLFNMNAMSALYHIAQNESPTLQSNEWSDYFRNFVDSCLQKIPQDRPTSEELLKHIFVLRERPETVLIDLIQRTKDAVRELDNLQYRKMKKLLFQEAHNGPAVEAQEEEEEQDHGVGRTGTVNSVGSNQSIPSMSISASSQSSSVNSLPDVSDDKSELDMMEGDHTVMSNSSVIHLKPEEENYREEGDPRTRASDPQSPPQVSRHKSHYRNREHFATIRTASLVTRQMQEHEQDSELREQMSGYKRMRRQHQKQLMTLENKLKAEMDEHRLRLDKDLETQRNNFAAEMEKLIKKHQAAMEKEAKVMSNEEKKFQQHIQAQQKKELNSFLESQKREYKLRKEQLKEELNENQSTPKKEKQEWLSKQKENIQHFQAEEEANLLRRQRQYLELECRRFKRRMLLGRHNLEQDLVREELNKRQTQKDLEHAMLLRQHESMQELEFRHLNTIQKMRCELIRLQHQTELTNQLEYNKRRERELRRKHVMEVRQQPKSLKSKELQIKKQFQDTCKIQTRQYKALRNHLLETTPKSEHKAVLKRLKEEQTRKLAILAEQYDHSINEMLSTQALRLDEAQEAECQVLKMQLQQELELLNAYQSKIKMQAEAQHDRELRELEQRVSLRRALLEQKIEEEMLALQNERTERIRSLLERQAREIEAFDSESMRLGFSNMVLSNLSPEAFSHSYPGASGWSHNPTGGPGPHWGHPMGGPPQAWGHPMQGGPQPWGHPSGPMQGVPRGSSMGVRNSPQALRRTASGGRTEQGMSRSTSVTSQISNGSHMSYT
Kind of assay: Inhibition of human TAOK1 at 1.82 nM by HotSpot assay relative to control.

In assay [6] the target is T2, Protein kinase C zeta type (Homo sapiens) (UniProt Q05513).
T2 sequence (whole entry): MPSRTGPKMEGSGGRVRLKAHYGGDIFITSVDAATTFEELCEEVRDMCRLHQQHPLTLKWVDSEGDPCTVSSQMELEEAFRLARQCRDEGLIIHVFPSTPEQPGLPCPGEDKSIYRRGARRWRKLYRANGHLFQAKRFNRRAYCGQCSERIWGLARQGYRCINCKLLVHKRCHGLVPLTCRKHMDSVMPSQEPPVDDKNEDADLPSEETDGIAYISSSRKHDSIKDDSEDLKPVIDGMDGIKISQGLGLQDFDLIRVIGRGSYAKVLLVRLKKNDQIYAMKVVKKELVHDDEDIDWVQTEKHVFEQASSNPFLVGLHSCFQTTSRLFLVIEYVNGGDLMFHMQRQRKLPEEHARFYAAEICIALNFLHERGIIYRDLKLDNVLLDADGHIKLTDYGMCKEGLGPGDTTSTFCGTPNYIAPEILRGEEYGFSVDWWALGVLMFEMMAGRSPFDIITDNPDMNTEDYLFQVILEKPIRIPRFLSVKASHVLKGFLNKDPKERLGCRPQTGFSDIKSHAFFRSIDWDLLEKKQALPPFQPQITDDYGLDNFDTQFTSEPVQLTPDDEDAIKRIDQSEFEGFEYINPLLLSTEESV
Kind of assay: Inhibition of human PKCzeta at 1.82 nM by HotSpot assay relative to control.

For assay [7], the target named is MAP kinase-interacting serine/threonine-protein kinase 2 (Homo sapiens) (UniProt Q9HBH9). Put plainly: Inhibition of human MNK2 at 1.82 nM by HotSpot assay relative to control.
For assay [8], the target named is T3, Serine/threonine-protein kinase A-Raf (Homo sapiens) (UniProt P10398).
T3 sequence (whole entry): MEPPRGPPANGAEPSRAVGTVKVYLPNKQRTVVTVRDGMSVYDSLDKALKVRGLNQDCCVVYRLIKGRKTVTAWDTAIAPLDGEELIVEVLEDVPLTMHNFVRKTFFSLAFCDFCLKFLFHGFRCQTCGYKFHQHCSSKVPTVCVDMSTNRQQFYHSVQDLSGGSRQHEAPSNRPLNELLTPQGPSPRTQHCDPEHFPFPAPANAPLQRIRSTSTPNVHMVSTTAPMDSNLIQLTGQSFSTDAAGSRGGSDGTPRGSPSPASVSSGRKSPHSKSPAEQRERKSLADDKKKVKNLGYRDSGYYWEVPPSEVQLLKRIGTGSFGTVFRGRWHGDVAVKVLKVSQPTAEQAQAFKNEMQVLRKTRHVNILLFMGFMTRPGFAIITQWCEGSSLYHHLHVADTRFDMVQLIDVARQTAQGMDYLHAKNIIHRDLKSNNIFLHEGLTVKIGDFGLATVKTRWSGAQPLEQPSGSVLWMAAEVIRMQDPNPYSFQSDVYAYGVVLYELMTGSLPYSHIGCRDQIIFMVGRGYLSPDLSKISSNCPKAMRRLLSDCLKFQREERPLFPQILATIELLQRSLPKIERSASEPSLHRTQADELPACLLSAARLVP
Put plainly: Inhibition of human ARAF at 1.82 nM by HotSpot assay relative to control.

As usually defined, the inhibition is the drop in the measured response relative to a control, in per cent.

Phosphorylase b kinase gamma catalytic chain, skeletal muscle/heart isoform (Homo sapiens), sequence (Q16816 whole entry, looked up, canonical isoform): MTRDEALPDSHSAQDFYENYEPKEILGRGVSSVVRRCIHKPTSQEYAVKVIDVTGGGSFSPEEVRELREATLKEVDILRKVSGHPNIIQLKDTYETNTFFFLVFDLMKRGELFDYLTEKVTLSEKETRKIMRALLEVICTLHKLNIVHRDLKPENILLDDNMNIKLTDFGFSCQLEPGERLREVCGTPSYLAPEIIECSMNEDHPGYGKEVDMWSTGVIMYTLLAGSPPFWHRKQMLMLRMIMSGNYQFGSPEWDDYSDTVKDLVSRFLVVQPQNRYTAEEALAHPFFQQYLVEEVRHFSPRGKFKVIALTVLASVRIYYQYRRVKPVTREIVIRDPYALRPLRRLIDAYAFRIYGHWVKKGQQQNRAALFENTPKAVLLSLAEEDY
Serine/threonine-protein kinase PLK2 (Homo sapiens), sequence (Q9NYY3 whole entry, looked up): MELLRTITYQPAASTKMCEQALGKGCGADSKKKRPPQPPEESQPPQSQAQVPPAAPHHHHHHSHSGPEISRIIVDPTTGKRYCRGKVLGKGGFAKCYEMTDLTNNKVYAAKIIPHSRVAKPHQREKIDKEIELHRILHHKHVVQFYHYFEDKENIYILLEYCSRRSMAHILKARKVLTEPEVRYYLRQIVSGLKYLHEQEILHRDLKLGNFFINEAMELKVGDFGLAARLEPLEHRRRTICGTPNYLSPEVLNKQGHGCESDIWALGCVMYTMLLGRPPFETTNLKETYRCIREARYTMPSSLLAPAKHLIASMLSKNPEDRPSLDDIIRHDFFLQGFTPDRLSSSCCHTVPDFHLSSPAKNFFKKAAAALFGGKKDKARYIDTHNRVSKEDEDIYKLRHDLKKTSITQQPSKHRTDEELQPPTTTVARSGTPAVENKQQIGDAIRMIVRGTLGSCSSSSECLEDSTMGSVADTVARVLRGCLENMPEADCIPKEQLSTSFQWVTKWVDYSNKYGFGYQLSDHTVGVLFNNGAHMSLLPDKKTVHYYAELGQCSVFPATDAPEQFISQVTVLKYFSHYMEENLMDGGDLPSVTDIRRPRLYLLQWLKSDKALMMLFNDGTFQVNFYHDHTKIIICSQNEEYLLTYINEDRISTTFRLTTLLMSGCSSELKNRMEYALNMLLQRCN
Hepatocyte growth factor receptor (Homo sapiens), sequence (P08581 whole entry): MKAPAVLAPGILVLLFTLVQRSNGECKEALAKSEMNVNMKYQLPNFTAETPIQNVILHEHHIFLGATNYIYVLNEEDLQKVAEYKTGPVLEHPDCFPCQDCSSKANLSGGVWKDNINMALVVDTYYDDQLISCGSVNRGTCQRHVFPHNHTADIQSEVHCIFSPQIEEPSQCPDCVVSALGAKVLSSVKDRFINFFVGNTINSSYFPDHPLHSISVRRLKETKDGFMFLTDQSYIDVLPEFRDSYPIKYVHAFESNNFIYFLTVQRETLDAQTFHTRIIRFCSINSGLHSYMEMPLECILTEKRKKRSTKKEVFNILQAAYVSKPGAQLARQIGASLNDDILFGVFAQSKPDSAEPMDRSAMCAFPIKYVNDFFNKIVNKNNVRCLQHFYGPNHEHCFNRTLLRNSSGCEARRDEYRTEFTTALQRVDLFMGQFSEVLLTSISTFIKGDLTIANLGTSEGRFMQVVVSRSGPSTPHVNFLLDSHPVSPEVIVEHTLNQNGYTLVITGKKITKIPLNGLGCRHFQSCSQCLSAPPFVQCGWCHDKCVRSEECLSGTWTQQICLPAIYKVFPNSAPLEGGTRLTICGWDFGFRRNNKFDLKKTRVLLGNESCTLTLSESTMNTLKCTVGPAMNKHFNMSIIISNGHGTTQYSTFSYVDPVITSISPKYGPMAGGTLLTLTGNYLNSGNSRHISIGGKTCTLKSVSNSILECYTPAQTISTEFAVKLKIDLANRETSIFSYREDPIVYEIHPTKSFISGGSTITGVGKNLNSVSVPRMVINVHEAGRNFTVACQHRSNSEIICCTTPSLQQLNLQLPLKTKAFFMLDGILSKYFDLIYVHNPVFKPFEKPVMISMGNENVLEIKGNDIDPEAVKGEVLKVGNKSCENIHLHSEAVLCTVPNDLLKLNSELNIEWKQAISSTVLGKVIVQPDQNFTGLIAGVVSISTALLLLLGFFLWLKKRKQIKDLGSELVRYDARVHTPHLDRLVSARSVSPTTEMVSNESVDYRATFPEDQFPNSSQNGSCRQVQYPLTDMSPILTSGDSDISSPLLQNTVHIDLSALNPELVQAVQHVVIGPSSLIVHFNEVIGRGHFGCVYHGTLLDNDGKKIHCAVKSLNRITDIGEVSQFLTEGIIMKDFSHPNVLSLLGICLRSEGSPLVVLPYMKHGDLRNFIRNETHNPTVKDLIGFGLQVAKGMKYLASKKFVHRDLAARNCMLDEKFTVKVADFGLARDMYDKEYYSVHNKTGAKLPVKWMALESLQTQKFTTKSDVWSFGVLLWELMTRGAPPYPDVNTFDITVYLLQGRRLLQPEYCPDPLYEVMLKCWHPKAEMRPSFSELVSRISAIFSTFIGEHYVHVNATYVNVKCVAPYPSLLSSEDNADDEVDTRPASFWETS
MAP kinase-interacting serine/threonine-protein kinase 2 (Homo sapiens), sequence (Q9HBH9 whole entry, looked up): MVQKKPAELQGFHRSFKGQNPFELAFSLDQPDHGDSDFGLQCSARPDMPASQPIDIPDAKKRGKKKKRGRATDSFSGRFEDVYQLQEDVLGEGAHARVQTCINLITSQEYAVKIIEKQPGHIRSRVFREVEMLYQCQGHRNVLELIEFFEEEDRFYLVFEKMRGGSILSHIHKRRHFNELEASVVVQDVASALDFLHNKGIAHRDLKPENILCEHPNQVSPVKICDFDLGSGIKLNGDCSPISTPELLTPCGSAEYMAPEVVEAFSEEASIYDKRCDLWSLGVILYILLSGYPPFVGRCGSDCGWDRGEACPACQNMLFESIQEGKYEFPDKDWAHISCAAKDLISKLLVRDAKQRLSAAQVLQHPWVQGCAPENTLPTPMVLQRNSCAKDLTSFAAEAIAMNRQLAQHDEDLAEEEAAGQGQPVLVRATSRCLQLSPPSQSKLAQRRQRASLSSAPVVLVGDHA
Calcium/calmodulin-dependent protein kinase type 1D (Homo sapiens), sequence (Q8IU85 whole entry, looked up): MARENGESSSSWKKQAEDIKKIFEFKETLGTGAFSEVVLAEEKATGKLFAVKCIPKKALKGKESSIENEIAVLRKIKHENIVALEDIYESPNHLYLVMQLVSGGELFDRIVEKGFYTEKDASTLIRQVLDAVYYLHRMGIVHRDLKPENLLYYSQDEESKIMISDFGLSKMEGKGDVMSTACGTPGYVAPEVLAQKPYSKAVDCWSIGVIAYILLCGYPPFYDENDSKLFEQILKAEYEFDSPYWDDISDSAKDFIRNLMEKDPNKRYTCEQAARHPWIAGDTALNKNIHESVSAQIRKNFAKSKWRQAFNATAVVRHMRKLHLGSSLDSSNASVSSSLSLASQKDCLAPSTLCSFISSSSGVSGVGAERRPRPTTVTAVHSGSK

As for `C[C@]1(O)C[C@@H](c2nc(-c3ccc4ccc(-c5ccccc5)nc4c3)c3c(N)nccn32)C1`, the inhibition in assay [1] was 6.05%; in assay [2] it was -4.38%; in assay [3], -0.58%; in assay [4] it was -0.1%.
`C[C@@]1(C(=O)Nc2ccc(F)nc2)CCCN1c1nc(Nc2cc(C3CC3)n[nH]2)c2cccn2n1`: the inhibition was 4.21% in assay [5], -1.74% in assay [6], -4.8% in assay [7] and 5.85% in assay [8].
